The source of these data is ChEMBL document CHEMBL1130373, “Dual CCK-A and -B receptor antagonists (I) C9-methyl-1,4-benzodiazepines” (Bioorg Med Chem Lett, 1997).

The nature of test [1]: Selectivity for cholecystokinin A and B receptors.
The target in test [2] is T1, Cholecystokinin receptor type A (Rattus norvegicus, UniProt P30551).
T1 sequence (P30551 whole entry): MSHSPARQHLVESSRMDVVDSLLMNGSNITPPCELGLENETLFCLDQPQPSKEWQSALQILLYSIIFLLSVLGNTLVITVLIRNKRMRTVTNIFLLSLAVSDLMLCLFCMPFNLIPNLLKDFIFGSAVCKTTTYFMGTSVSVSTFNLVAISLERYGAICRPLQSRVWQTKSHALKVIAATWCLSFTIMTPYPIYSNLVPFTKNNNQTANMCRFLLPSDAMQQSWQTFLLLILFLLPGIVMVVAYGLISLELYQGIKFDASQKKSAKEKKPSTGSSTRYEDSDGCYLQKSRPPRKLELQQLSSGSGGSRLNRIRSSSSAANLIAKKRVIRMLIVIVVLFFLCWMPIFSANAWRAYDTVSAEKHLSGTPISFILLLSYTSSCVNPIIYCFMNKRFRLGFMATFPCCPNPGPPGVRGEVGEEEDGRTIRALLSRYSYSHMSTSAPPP
Kind of test: Inhibition of [125I]Cholecystokinin-8 (125I-CCK-8) binding to Cholecystokinin type A receptor of rat pancreatic membranes. The class given is cell membranes, Membrane.

For test [3], the target named is T1, Cholecystokinin receptor type A. Kind of test: Inhibition of [125I]Cholecystokinin-8 binding to Cholecystokinin type A receptor of rat pancreatic membranes. The class given is cell membranes, Membrane.

As to `CSc1cccc(NC(=O)NC2N=C(c3ccccc3F)c3cccc(C)c3N(CC(=O)N3CC4CCC(CC4)C3)C2=O)c1` (configuration not stated), the Selectivity in test [1] came to 57. In test [2], this compound had an IC50 of 21 nM.
The compound `Cc1cccc2c1N(CC(=O)N1CC3CCC(CC3)C1)C(=O)C(NC(=O)Nc1cccc(-c3nn[nH]n3)c1)N=C2c1ccccc1F` (stereo in doubt; (-)-11) [listing 1 of 2 here] had a half-maximal inhibitory concentration (IC50) in test [3] of 670 nM.
For `COc1cccc(NC(=O)NC2N=C(c3ccccc3F)c3cccc(C)c3N(CC(=O)N3CC4CCC(CC4)C3)C2=O)c1` (configuration not stated), the Selectivity in test [1] turned out to be 7.3. This compound also yielded an IC50 in test [2] of 7.3 nM.
For `Cc1cccc(NC(=O)NC2N=C(c3ccccc3F)c3ccccc3N(CC(=O)N3CC4CCC(CC4)C3)C2=O)c1` (configuration not stated) the same measures were 710 and 62 nM.
With `Cc1cccc2c1N(CC(=O)N1CC3CCC(CC3)C1)C(=O)C(NC(=O)Nc1cccc(-c3nn[nH]n3)c1)N=C2c1ccccc1F` (stereo in doubt; 11) [listing 1 of 2 here], the Selectivity in test [1] worked out at 21.
In test [1], `Cc1cccc2c1N(CC(=O)N1CC3CCC(CC3)C1)C(=O)C(NC(=O)Nc1cccc(Br)c1)N=C2c1ccccc1F` (configuration not stated) came in with a Selectivity of 2.8. In test [2], this compound showed an IC50 of 5.1 nM.
Take `Cc1cccc2c1N(CC(=O)N1CC3CCC(CC3)C1)C(=O)C(NC(=O)Nc1cccc(-c3nn[nH]n3)c1)N=C2c1ccccc1F` (stereo in doubt; 11) [listing 2 of 2 here]: the IC50 in test [2] stood at 14 nM.
In the case of `Cc1cccc2c1N(CC(=O)N1CC3CCC(CC3)C1)C(=O)C(NC(=O)Nc1cccc(Cl)c1)N=C2c1ccccc1F` (configuration not stated), the Selectivity in test [1] came out at 3.7. For the same compound, the IC50 in test [2] amounted to 7.4 nM.
Compound `Cc1cccc2c1N(CC(=O)N1CC3CCC(CC3)C1)C(=O)C(NC(=O)Nc1cccc(-c3nn[nH]n3)c1)N=C2c1ccccc1F` (single isomer, unassigned; (+)) [listing 1 of 2 here] came in with an IC50 in test [3] of 9.2 nM.
Take `Cc1cccc2c1N(CC(=O)N1CC3CCC(CC3)C1)C(=O)C(NC(=O)Nc1cccc(C(=O)O)c1)N=C2c1ccccc1F` (configuration not stated): in test [1], the Selectivity was determined as 170. The IC50 in test [2] is 160 nM.
In test [1], `Cc1cccc2c1N(CC(=O)N1CC3CCC(CC3)C1)C(=O)C(NC(=O)Nc1cccc(-c3nn[nH]n3)c1)N=C2c1ccccc1F` (stereo in doubt; (-)-11) [listing 2 of 2 here] returned a Selectivity of 110.
As for `CC(=O)c1cccc(NC(=O)NC2N=C(c3ccccc3F)c3cccc(C)c3N(CC(=O)N3CC4CCC(CC4)C3)C2=O)c1` (configuration not stated), in test [1], the Selectivity turned out to be 15. Moreover, the IC50 in test [2] came to 13 nM.
On to `Cc1cccc2c1N(CC(=O)N1CC3CCC(CC3)C1)C(=O)C(NC(=O)Nc1cccc(-c3nn[nH]n3)c1)N=C2c1ccccc1F` (single isomer, unassigned; (+)) [listing 2 of 2 here], for which, in test [1], the Selectivity worked out at 24.
Take `Cc1cccc(NC(=O)NC2N=C(c3ccccc3F)c3cccc(C)c3N(CC(=O)N3CC4CCC(CC4)C3)C2=O)c1` (configuration not stated): the Selectivity in test [1] worked out at 36. In test [2], this compound yielded an IC50 of 17 nM.

By IC50 is commonly meant the concentration at which inhibition is half-maximal.
